ChEMBL document CHEMBL3885881, “DrugMatrix”

Species on record: Rattus norvegicus
Assay: DrugMatrix - Regimen: Daily Repeat
Type: toxicity, organism-based, Sprague-Dawley
Set-up: regimen Daily Repeat, gender Male, age 6-8 weeks
Conditions: in vivo, po, route oral GAVAGE, vehicle .5 % CMC; for ABSOLUTE BASOPHIL / ABSOLUTE EOSINOPHIL / ABSOLUTE LYMPHOCYTE / ABSOLUTE MONOCYTE / ABSOLUTE SEGMENTED NEUTROPHIL / BASOPHIL / EOSINOPHIL / ERYTHROCYTE COUNT / HEMATOCRIT / HEMOGLOBIN / LEUKOCYTE COUNT / LYMPHOCYTE / MEAN CORPUSCULAR HEMOGLOBIN / MEAN CORPUSCULAR HEMOGLOBIN CONCENTRATION / MEAN CORPUSCULAR VOLUME / MONOCYTE / NEUTROPHIL / NUCLEATED RED BLOOD CELLS / PLATELET COUNT: tissue Blood; for ALANINE AMINOTRANSFERASE / ALBUMIN / ALKALINE PHOSPHATASE / ASPARTATE AMINOTRANSFERASE / BLOOD UREA NITROGEN / CARBON DIOXIDE / CHLORIDE / CHOLESTEROL / CREATINE PHOSPHOKINASE / CREATININE / GLUCOSE / LACTATE DEHYDROGENASE / LIPASE / PHOSPHORUS / POTASSIUM / SODIUM / TOTAL BILIRUBIN / TOTAL PROTEIN / URIC ACID: tissue Plasma
[1] = 100 mg/kg, 72 h, dose level Low, time 3 day
[2] = 100 mg/kg, 120 h, dose level Low, time 5 day
[3] = 1000 mg/kg, 72 h, dose level High, time 3 day
[4] = 1000 mg/kg, 120 h, dose level High, time 5 day

CC1CN(c2cc3c(cc2F)c(=O)c(C(=O)O)cn3-c2ccc(F)cc2F)CCN1 (configuration not stated) [TEMAFLOXACIN]
ABSOLUTE BASOPHIL [1]: 0 CELLS/uL | ABSOLUTE EOSINOPHIL [1]: 0 CELLS/uL | ABSOLUTE LYMPHOCYTE [1]: 10703 CELLS/uL | ABSOLUTE MONOCYTE [1]: 236.33 CELLS/uL | ABSOLUTE SEGMENTED NEUTROPHIL [1]: 1027.33 CELLS/uL | BASOPHIL [1]: 0% | EOSINOPHIL [1]: 0% | ERYTHROCYTE COUNT [1]: 5.1 x10E6/uL | HEMATOCRIT [1]: 32.03% | HEMOGLOBIN [1]: 12.13 G/DL | LEUKOCYTE COUNT [1]: 11.97 x10E3/uL | LYMPHOCYTE [1]: 88.33% | MEAN CORPUSCULAR HEMOGLOBIN [1]: 23.83 pg | MEAN CORPUSCULAR HEMOGLOBIN CONCENTRATION [1]: 37.93 G/DL | MEAN CORPUSCULAR VOLUME [1]: 62.83 fL | MONOCYTE [1]: 2.33% | NEUTROPHIL [1]: 9.33% | NUCLEATED RED BLOOD CELLS [1]: 0 /100WBC | PLATELET COUNT [1]: 1089.33 x10E3/uL | ALANINE AMINOTRANSFERASE [1]: 64.67 u/L | ALBUMIN [1]: 4.07 G/DL | ALKALINE PHOSPHATASE [1]: 401.33 u/L | ASPARTATE AMINOTRANSFERASE [1]: 92.33 u/L | BLOOD UREA NITROGEN [1]: 15.67 mg/dL | CARBON DIOXIDE [1]: 35 mmol/L | CHLORIDE [1]: 98.67 MEQ/L | CHOLESTEROL [1]: 91 mg/dL | CREATINE PHOSPHOKINASE [1]: 525.67 u/L | CREATININE [1]: 0.24 mg/dL | GLUCOSE [1]: 143 mg/dL | LACTATE DEHYDROGENASE [1]: 134.67 u/L | LIPASE [1]: 9 u/L | PHOSPHORUS [1]: 12.2 mg/dL | POTASSIUM [1]: 5.94 MEQ/L | SODIUM [1]: 143.63 MEQ/L | TOTAL BILIRUBIN [1]: 0.23 mg/dL | TOTAL PROTEIN [1]: 6.3 G/DL | URIC ACID [1]: 0.53 mg/dL | ABSOLUTE BASOPHIL [2]: 0 CELLS/uL | ABSOLUTE EOSINOPHIL [2]: 33 CELLS/uL | ABSOLUTE LYMPHOCYTE [2]: 9070.33 CELLS/uL | ABSOLUTE MONOCYTE [2]: 218.67 CELLS/uL | ABSOLUTE SEGMENTED NEUTROPHIL [2]: 878 CELLS/uL | BASOPHIL [2]: 0% | EOSINOPHIL [2]: 0.33% | ERYTHROCYTE COUNT [2]: 5.56 x10E6/uL | HEMATOCRIT [2]: 33.53% | HEMOGLOBIN [2]: 12.97 G/DL | LEUKOCYTE COUNT [2]: 10.2 x10E3/uL | LYMPHOCYTE [2]: 88.67% | MEAN CORPUSCULAR HEMOGLOBIN [2]: 23.37 pg | MEAN CORPUSCULAR HEMOGLOBIN CONCENTRATION [2]: 38.7 G/DL | MEAN CORPUSCULAR VOLUME [2]: 60.37 fL | MONOCYTE [2]: 2% | NEUTROPHIL [2]: 9% | NUCLEATED RED BLOOD CELLS [2]: 0 /100WBC | PLATELET COUNT [2]: 1110.67 x10E3/uL | ALANINE AMINOTRANSFERASE [2]: 48.67 u/L | ALBUMIN [2]: 4.43 G/DL | ALKALINE PHOSPHATASE [2]: 449.67 u/L | ASPARTATE AMINOTRANSFERASE [2]: 74.33 u/L | BLOOD UREA NITROGEN [2]: 15.33 mg/dL | CARBON DIOXIDE [2]: 37 mmol/L | CHLORIDE [2]: 98 MEQ/L | CHOLESTEROL [2]: 89.67 mg/dL | CREATINE PHOSPHOKINASE [2]: 298.67 u/L | CREATININE [2]: 0.34 mg/dL | GLUCOSE [2]: 138.67 mg/dL | LACTATE DEHYDROGENASE [2]: 126 u/L | LIPASE [2]: 7.67 u/L | PHOSPHORUS [2]: 12.27 mg/dL | POTASSIUM [2]: 5.95 MEQ/L | SODIUM [2]: 144.33 MEQ/L | TOTAL BILIRUBIN [2]: 0.23 mg/dL | TOTAL PROTEIN [2]: 6.37 G/DL | URIC ACID [2]: 0.8 mg/dL | ABSOLUTE BASOPHIL [3]: 0 CELLS/uL | ABSOLUTE EOSINOPHIL [3]: 0 CELLS/uL | ABSOLUTE LYMPHOCYTE [3]: 8968.67 CELLS/uL | ABSOLUTE MONOCYTE [3]: 91.33 CELLS/uL | ABSOLUTE SEGMENTED NEUTROPHIL [3]: 740 CELLS/uL | BASOPHIL [3]: 0% | EOSINOPHIL [3]: 0% | ERYTHROCYTE COUNT [3]: 5.3 x10E6/uL | HEMATOCRIT [3]: 32.17% | HEMOGLOBIN [3]: 12.37 G/DL | LEUKOCYTE COUNT [3]: 9.8 x10E3/uL | LYMPHOCYTE [3]: 91.33% | MEAN CORPUSCULAR HEMOGLOBIN [3]: 23.43 pg | MEAN CORPUSCULAR HEMOGLOBIN CONCENTRATION [3]: 38.47 G/DL | MEAN CORPUSCULAR VOLUME [3]: 60.8 fL | MONOCYTE [3]: 1% | NEUTROPHIL [3]: 7.67% | NUCLEATED RED BLOOD CELLS [3]: 0 /100WBC | PLATELET COUNT [3]: 1214 x10E3/uL | ALANINE AMINOTRANSFERASE [3]: 59 u/L | ALBUMIN [3]: 3.67 G/DL | ALKALINE PHOSPHATASE [3]: 384 u/L | ASPARTATE AMINOTRANSFERASE [3]: 87 u/L | BLOOD UREA NITROGEN [3]: 13 mg/dL | CARBON DIOXIDE [3]: 35.33 mmol/L | CHLORIDE [3]: 99 MEQ/L | CHOLESTEROL [3]: 84.33 mg/dL | CREATINE PHOSPHOKINASE [3]: 684.67 u/L | CREATININE [3]: 0.26 mg/dL | GLUCOSE [3]: 138.33 mg/dL | LACTATE DEHYDROGENASE [3]: 131 u/L | LIPASE [3]: 9 u/L | PHOSPHORUS [3]: 11.53 mg/dL | POTASSIUM [3]: 5.74 MEQ/L | SODIUM [3]: 143.93 MEQ/L | TOTAL BILIRUBIN [3]: 0.2 mg/dL | TOTAL PROTEIN [3]: 5.97 G/DL | URIC ACID [3]: 0.37 mg/dL | ABSOLUTE BASOPHIL [4]: 0 CELLS/uL | ABSOLUTE EOSINOPHIL [4]: 32 CELLS/uL | ABSOLUTE LYMPHOCYTE [4]: 12898.67 CELLS/uL | ABSOLUTE MONOCYTE [4]: 145 CELLS/uL | ABSOLUTE SEGMENTED NEUTROPHIL [4]: 424.33 CELLS/uL | BASOPHIL [4]: 0% | EOSINOPHIL [4]: 0.33% | ERYTHROCYTE COUNT [4]: 5.35 x10E6/uL | HEMATOCRIT [4]: 31.83% | HEMOGLOBIN [4]: 12.7 G/DL | LEUKOCYTE COUNT [4]: 13.5 x10E3/uL | LYMPHOCYTE [4]: 95.33% | MEAN CORPUSCULAR HEMOGLOBIN [4]: 23.77 pg | MEAN CORPUSCULAR HEMOGLOBIN CONCENTRATION [4]: 39.9 G/DL | MEAN CORPUSCULAR VOLUME [4]: 59.53 fL | MONOCYTE [4]: 1% | NEUTROPHIL [4]: 3.33% | NUCLEATED RED BLOOD CELLS [4]: 0 /100WBC | PLATELET COUNT [4]: 1130.67 x10E3/uL | ALANINE AMINOTRANSFERASE [4]: 52.33 u/L | ALBUMIN [4]: 3.8 G/DL | ALKALINE PHOSPHATASE [4]: 253 u/L | ASPARTATE AMINOTRANSFERASE [4]: 80.33 u/L | BLOOD UREA NITROGEN [4]: 13.67 mg/dL | CARBON DIOXIDE [4]: 33.33 mmol/L | CHLORIDE [4]: 100.33 MEQ/L | CHOLESTEROL [4]: 76.67 mg/dL | CREATINE PHOSPHOKINASE [4]: 375.67 u/L | CREATININE [4]: 0.32 mg/dL | GLUCOSE [4]: 145 mg/dL | LACTATE DEHYDROGENASE [4]: 188.33 u/L | LIPASE [4]: 8.33 u/L | PHOSPHORUS [4]: 11.47 mg/dL | POTASSIUM [4]: 5.93 MEQ/L | SODIUM [4]: 145.13 MEQ/L | TOTAL BILIRUBIN [4]: 0.2 mg/dL | TOTAL PROTEIN [4]: 5.77 G/DL | URIC ACID [4]: 0.83 mg/dL
